The values that follow come from article PMC11513920, “Building Metabolically Stable and Potent Anti-HIV Thioether-Lipid Analogues of Tenofovir Exalidex: A thorough Pharmacological Analysis” (Journal of Medicinal Chemistry, 2024).

Series [1] can be described thus: Human liver microsome stability. As to conditions: for remaining at 2 h, 3 μM / half-life at 3 μM: human, microsomes; for remaining at 2 h, 3 μM: HLM % remaining; for remaining at 2 h, 3 μM / HLM % remaining: relative percent remaining of prodrug at 120 min; for half-life at 3 μM: HLM t1/2, HLM 1 mg/mL. The protocol:
Human liver microsomes (HLMs, 20 mg/mL) and CD-1 mouse liver microsomes (MLMs, 20 mg/mL) were purchased from Xenotech. NADPH was purchased from Sigma-Aldrich and prepared in 10 mM stock solutions of distilled H2O (Invitrogen UltraPure). […] Test compounds and positive controls were initially dissolved in MeOH to make 10 mM stock solutions. Sample solutions were then further diluted in 70/30 MeOH/H2O to 500 μM. Next, the reactions were prepared by mixing human or mouse liver microsomes (55 μL) with potassium phosphate buffer (100 mM, 928 μL) in 1.5 mL Eppendorf tubes. The test compounds (6.6 μL of 500 μM solution) were subsequently added to the suspensions, and the reaction mixtures were incubated at 37 °C for 5 min. Afterward, the liver microsome reactions were initiated with 110 μL of 10 mM NADPH and further incubated at 37 °C for the designated time course of the study. […] Each test compound was run in tandem with positive and negative control experiments for quality assurance. Positive control reactions were conducted at a final volume of 550 μL for a single run of each time point.
For both LM and plasma stability assays, each data point was analyzed in duplicate using in-between blank washes to avoid carry over and to equilibrate the column for the subsequent runs. Averages of these duplicate for individual compounds at each time point were then normalized to the data at 0 min, representing 100% test compound remaining or 0% metabolism. Half-lives (t1/2) were calculated by plotting ln of % test compound remaining versus time and performing linear regression to determine slope.
Metabolic Stability Assays
Liver Microsome Stability
Liver Microsome Stability Assay Setup Example
Quenching Mixture: 100 µL MeOH with ISTD (2 µM d5-7-ethoxycoumarin).
Final Volume After Quenching: 200 µL (100 µL from reaction mixture + 100 µL quencher
solution; ISTD final concentration of 1.0 µM).

The nature of series [2]: Solubility in antiviral/cytotoxicity assay medium. The series is classed as physicochemical. The note with it: despite formulation with HSA. An excerpt: Nevertheless, due to the promising metabolic profile of 2i and 2j, our lab is continuing to analyze TXL analogs with chain lengths beyond 20 atoms and will disclose a report in the future. However, for the sake of this study, 2a remained as the most pharmacologically attractive starting point for ω-functionalization.

The conditions of series [3]: dogs; cited from earlier work.
The conditions of series [4]: depending on food intake; cited from earlier work.
Series [5] is described as follows: in vitro. The note with it: human, HepaRG Cmax, 20 μM, HSA formulation 5:1, recorded after 3 h incubation.
Source text: (§1) Naturally, due the metabolic complexity of HepaRG cells, we specifically analyzed prodrug cellular uptake and stability, as represented by Cmax and intrinsic clearance (Clint,u) accordingly (Figure 7 and Table 9).
(§2) The HepaRG cell line (HPRGC10, Thermo Fisher Scientific) was used to evaluate the cellular permeability and metabolic stability for select final compounds in vitro. The cells were initially thawed with working media composed of HepaRG Thaw, Plate, & General Purpose Medium Supplement (HPRG670), Williams Medium E (100 mL), and GlutaMax (1 mL), all purchased from Thermo Fisher Scientific. […] After the thawing medium was aspirated from each well, the cells were cultured for an additional 6 days with working media consisting of HepaRG Maintenance/Metabolism Medium Supplement (HPRG720), Williams Medium E (500 mL), and GlutaMax (1 mL), all purchased from Thermo Fisher Scientific. Upon completing the 7-day culture period, HepaRG cells were plated in enough wells to allow for duplicate analysis of prodrugs in two independent cellular uptake or metabolic stability experiments. All studied compounds were formulated with human serum albumin (HSA, 5:1 compound to HSA molar ratio) and subsequently diluted to a 20 μM final concentration with assay medium composed of serum-free INVITROGRO HI Medium and TORPEDO Antibiotic Mix purchased from BioIVT. For cellular uptake determinations, the maintenance/metabolism medium was first aspirated from each well, and then the plated cells were spiked with 1.0 mL of test compound stock solution. Subsequently, the plate was incubated at 37 °C under 5% CO2 environment over the desired time course (seven data points/compound). Blank wells not treated with prodrug were included in assay runs as controls and initial time points (0 min). At each time point, the test compound solution was removed from the appropriate wells, and the plated cells were washed with 1.0 mL of DPBS twice. The HepaRG cells were then extracted with 500 μL of cold ISTD solution (1 μM 7-ethoxy-d5-coumarin in 70/30 MeOH/H2O), and the quenched aliquots were centrifuged at 15,000 g for 10 min at 4 °C. […] After obtaining prodrug Cmax and Tmax values from the cellular uptake assay, HepaRG metabolic stability was then assessed. Following the initial 7-day culture procedure, the maintenance/metabolism medium was aspirated from each well, and the plated cells were spiked with 1.0 mL of test compound stock solution. […] The test compound solution was then removed from each well and replaced with untreated dilution medium (i.e., serum-free INVITROGRO HI Medium and TORPEDO Antibiotic Mix), initializing the stability determination. The HepaRG plate was once more incubated at 37 °C under 5% CO2 atmosphere over the desired time course (nine data points/compound), and sample preparation and analysis were handled in identical fashion to cellular uptake experiments.
For series [6], the system named is HepaRG cells. Description: HepaRG cellular uptake. The note with it: for mean prodrug concentration in HepaRG cells: 20 µM; for HepaRG Cmax: 20 μM, HSA formulation 5:1, recorded after 3 h incubation.
Source text: as §1, §2
The test system of series [7] is HepaRG cells. Put plainly: HepaRG cellular metabolic stability. As to conditions: for HepaRG t1/2: after 3 h loading at 20 μM, 37 °C; for HepaRG Clint,u: calculated from cellular t1/2.
The nature of series [8]: Cellular cytotoxicity (cell viability, CellTiter 96 or resazurin). As to conditions: human, CC50, HEK293T cells, compounds formulated with HSA (5:1).
Procedure: Second, HIV IC50 and cellular CC50 were determined with a pseudoviral, whole (HEK293T) cell, nonreplicative HIV assay, using the HIV-1 subtype C strain MJ4 (refer to Experimental Methods). To account for the unique amphiphilic properties of TXL and the novel HTP-based prodrugs, all compounds were formulated in a human serum albumin (HSA) solution (5:1 drug:protein).
Assessment of cytotoxicity and antiviral activity of all final compounds in vitro was conducted according to previously reported procedures.[39] In summary, human embryonic kidney (HEK293T) cells maintained in high glucose (25 mM), Dulbecco’s modified Eagle’s medium (DMEM) supplemented with fetal bovine serum (10%), sodium pyruvate (1 mM), L-glutamine (2 mM), HEPES (25 mM), and gentamicin (50 μg/mL) were used for determinations. The cells were maintained in an incubator at 37 °C under 5% CO2 in a humidified atmosphere. For both cytotoxicity and antiviral screening, all compounds were evaluated in duplicate in at least two independent experiments. All final compounds were formulated with human serum albumin (HSA, 5:1 compound to HSA molar ratio) and subsequently diluted with complete DMEM to 200 μM. Fifty microliters of test compound serial dilutions (3-fold) were prepared in 96-well culture plates, after which 50 μL of HEK293T cells (2 × 10^4 cells/well) was added. […] Cytotoxicity was then assessed by quantifying cell viability using the CellTiter 96 Aqueous One Solution Cell Proliferation Assay (Promega, Madison, WI) or resazurin sodium salt (cat# R7017, Merck, Darmstadt, Germany).[61] […] Antiviral activity was then assessed using a single-cycle, nonreplicating, envelope deleted HIV pseudoviral in vitro assay.[62],[63] The assay relies on the introduction of the firefly luciferase gene into HEK293T cells through infection with HIV-like viral particles, containing Reverse Transcriptase (RT) and Integrase (IN) from the HIV-1 subtype C strain MJ4.[64] The expression of the luciferase in the cells is directly proportional to the level of infection by the HIV-like viral particles and can be used to assess the inhibition of HIV-1 RT and IN. To evaluate anti-HIV activity, 3-fold serial dilutions of all final compounds were prepared in 50 μL over the noncytotoxic concentration range (as determined from the cytotoxicity screens described above) in 96-well culture plates. HEK293T cells (2 × 10^4 cells/well) and HIV-like viral particles, standardized to produce a luminescence signal of 1 × 10^6 relative light units (RLUs) in the growth medium only control, were combined, and 50 μL was added to the wells containing serially diluted test compounds. […] The expression of luciferase was subsequently quantified by adding 100 μL of the Bright-Glo Luciferase Assay substrate (Promega, Madison, WI) to each well of the 96-well plates. After incubation at rt for 3 min, luminescence was quantified on the GloMax Explorer Multimode Microplate Reader (Promega, Madison, WI).
The nature of series [9]: in vitro. The note with it: human, other cell line.
For series [10] the following is noted: plasma, p.o. 10 mg/kg; cited from earlier work.
The conditions of series [11]: liver, p.o. 10 mg/kg; cited from earlier work.
The nature of a further series: HepaRG cellular uptake. The note with it: human, HepaRG Cmax, 20 μM, HSA formulation 5:1, recorded after 3 h incubation.
Series [12] is described as follows: HepaRG cellular metabolic stability. The note with it: human, other cell line.
A further series deals with HEK293T cells. Also noted: method as in PMID 34459598. As to conditions: previously reported lead; cited from earlier work.
The test system of series [13] is HIV-1 subtype C strain MJ4. Also noted: method as in PMID 34459598. The note with it: previously reported lead; cited from earlier work.
Where [14] appears, read: 3 μM compound, NADPH, 37 °C, 120 min course.
[15] abbreviates: HepaRG Clint,u, calculated from cellular t1/2.
[16] abbreviates: HepaRG t1/2, after 3 h loading at 20 μM, 37 °C.

Where “and” joins values, the source holds several entries; their conditions need not be identical. Equal values may be shown once. Where a name gives a salt, the structure may show the parent alone. Read-outs that look alike come from different tables or passages of the source.

Consider `CCCCCCCCCCCCCCCCCCSCCCOP(=O)(O)CO[C@H](C)Cn1cnc2c(N)ncnc21.N` [2i], for which, in series [1], the amount remaining at 2 h, 3 μM was 95% and the HLM % remaining was more than 95%. The half-life at 3 μM in series [1] (setting [14]) was more than 2 h. Moreover, the “solubility in the assay medium” value in series [2] is given as “poor solubility”.
For `CCCCCCCCCCCCCCCCCCCCSCCCOP(=O)(O)CO[C@H](C)Cn1cnc2c(N)ncnc21.N` [2j] the same measures were 95%, more than 95%, more than 2 h and “poor solubility”.
As to `CC(C)OC(=O)[C@H](C)N[P@](=O)(CO[C@H](C)Cn1cnc2c(N)ncnc21)Oc1ccccc1` [TAF, tenofovir alafenamide], the “share of oral dose undergoing hepatic processing” value in series [3] is on record as 65%.
Regarding `CC(C)OC(=O)OCOP(=O)(CO[C@H](C)Cn1cnc2c(N)ncnc21)OCOC(=O)OC(C)C` [TDF, tenofovir disoproxil fumarate], in series [4], the oral bioavailability was 25–40%.
In the series “in vitro [5]”, `CCCCCCCCCCCCCCCCOCCCOP(=O)(O)CO[C@H](C)Cn1cnc2c(N)ncnc21` [TXL, tenofovir exalidex] had a Cmax of 397 ng/mL. For the same molecule, the “mean prodrug concentration in HepaRG cells” value with HepaRG cells [6] (0.5 h) came out at 258.83 ng/mL; in the series with HepaRG cells [6] (1 h), 311.46 ng/mL; with HepaRG cells [6] (2 h) it was 378.66 ng/mL; with HepaRG cells [6] (3 h) it was 397.09 ng/mL; in the series with HepaRG cells [6] (5 h), 468.27 ng/mL; in the series with HepaRG cells [6] (7 h) it was 536.47 ng/mL. Besides, the “HepaRG Cmax” value in the series with HepaRG cells [6] was 397.1 ± 1.4 ng/mL. The “HepaRG t1/2” value in the series on HepaRG cells [7] was determined as 0.738 ± 0.0083 h. Moreover, the “HepaRG Clint,u” value in the series on HepaRG cells [7] is given as 28.5 μL/min/million cells. Moreover, the “HLM t1/2” value in series [1] (HLM 1 mg/mL, 3 μM compound, NADPH, 37 °C, 120 min course) was 42 min and 41.6 ± 9.0 ^d min. In addition, the cytotoxic concentration (CC50) at 48 h in [8] is 97.6 ± 2.7 µM. The intrinsic clearance (hepatocyte CLint) in “in vitro [9]” (setting [15]) is approximately 29 µL/min/1e6 cells. This molecule also showed a half-life in “in vitro [9]” (setting [16]) of 0.717 to 0.733 h. Moreover, the figures for the “Prodrug AUC0-24h” value in series [10] and in series [11] were 301 ng·h/mL and 4970 ng·h/mL, respectively. Besides, the results for the “Prodrug Cmax” value in series [10] and in [11] were 125 ng/mL and 2730 ng/mL, respectively. The “Prodrug Tmax” value in series [10] and in series [11] was 1.00 h in each case. Besides, the “Prodrug t1/2” value in [10] was 2.92 h. In series [10], the k is 0.237.
`C[C@H](Cn1cnc2c(N)ncnc21)OCP(=O)(O)OCCCOCCCCCCCCCCCCCCCC(F)(F)F.N` [compound 1]: the “mean prodrug concentration in HepaRG cells” value in the series on HepaRG cells [6] (0.5 h) turned out to be 141.43 ng/mL; with HepaRG cells [6] (1 h) it was 180.34 ng/mL; with HepaRG cells [6] (2 h), 319.83 ng/mL; with HepaRG cells [6] (3 h) it was 337.43 ng/mL; with HepaRG cells [6] (5 h), 321.56 ng/mL; in the series with HepaRG cells [6] (7 h), 417.13 ng/mL. Also, the “HepaRG Cmax” value with HepaRG cells [6] amounted to 337.4 ± 1.0 ng/mL. The concentration in the series “HepaRG cellular uptake” peaked (Cmax at 3 h, 20 μM) at 337 ng/mL. The “HepaRG t1/2” value in the series on HepaRG cells [7] was 0.715 ± 0.0083 h. The “HepaRG Clint,u” value in the series on HepaRG cells [7] is 29.4 μL/min/million cells. For the same molecule, the hepatocyte CLint at 20 μM in series [12] (setting [15]) was approximately 29 µL/min/1e6 cells. In [12] (setting [16]), the half-life at 20 μM lay within 0.717 to 0.733 h. Further, the half-maximal cytotoxic concentration (CC50) with HEK293T cells was more than 100 µM. In [13], the IC50 was 0.049 ± 0.01 µM. The “Prodrug AUC0-24h” value in [10] was 1280 ng·h/mL; in series [11], 109,000 h·ng/mL. Further, the “Prodrug Cmax” value in series [10] is 125 ng/mL; in series [11] it was 8710 ng/mL. Further, the “Prodrug Tmax” value in series [10] was 2.00 h. For the same molecule, the “Prodrug t1/2” value in [10] was 8.66 h. For the same molecule, the k in series [10] is given as 0.080.
